The record followed here is US10323051B2, “Methods for controlling depolymerization of polymer compositions” (RHODIA OPERATIONS, priority 2011, dated 2019).

The nature of series [1]: Viscosity of THPS-(1%) polyacrylamide aqueous dispersion (OFITE viscometer, 300 rpm). In kind it is physicochemical. The settings on record: for viscosity @300 rpm (shear rate 500 s-1) after 60 minutes / viscosity @300 rpm after 60 minutes: 1% polyacrylamide; for effect on depolymerization: polyacrylamide with THPS under aerobic conditions at acidic pH, inhibitor added; for viscosity @300 rpm after 60 minutes: no depolymerization inhibitor.

Series [2] in a line: Molecular weight determination of polymer in the presence of THPS by GPC with light scattering detection. Type of series: physicochemical. The settings on record: for Mn / Mw / Polydispersity (Mw/Mn): 75 ppm THPS, 1% pol A, overnight at ambient temperature.
For series [3] the following is noted: guar or guar derivatives mixed with THPS at 10-1000 ppm.
Method: The polymer(s) under investigation were weighed and dissolved in (deionized) DI water to attain a desired concentration (for example, 0.48% w/w guar, 1.0% w/w polyacrylamide). The solution was mixed thoroughly for 1 h to ensure that the polymer had fully or substantially dissolved and the polymer fully hydrated
The polymer solution as prepared above was placed in a 250 ml beaker. Viscosity was measured with an OFITE viscometer (model 900). Initial viscosity was recorded (300 rpm) (at 500 s^−1) and then an acetic acid/sodium acetate buffer added to achieve a total concentration in the polymer solution of 0.2% w/w. pH and viscosity were recorded and then the depolymerization inhibitor was added. THPS at the concentration being investigated was then added. Viscosity measurements were then made at various time intervals as recorded in the table of FIG. 1.

Where two headings read alike, the source gives them in different places.

As for `O=C1O[C@H]([C@@H](O)CO)C(O)=C1O` [ascorbic acid], the “viscosity @300 rpm (shear rate 500 s-1) after 60 minutes” value was determined as 25.9 cP in series [1] (75 ppm THPS with 100 ppm ascorbic acid (rerun), initial viscosity 27.5 cP) and 24.5 cP in series [1] (75 ppm THPS with 200 ppm ascorbic acid, initial viscosity 27.5 cP). In series [1], the effect on depolymerization entry was “the depolymerization is controlled or stopped”. Also, the Mn in series [2] (1 ppm ascorbic acid) is recorded as 1,460,000 g/mol; in series [2] (10 ppm ascorbic acid) it was 1,480,000 g/mol; in series [2] (50 ppm ascorbic acid), 1,590,000 g/mol. Also, the results for the Mw in series [2] (1 ppm ascorbic acid), in series [2] (10 ppm ascorbic acid) and in series [2] (50 ppm ascorbic acid) were 1,770,000 g/mol, 1,840,000 g/mol and 1,890,000 g/mol, respectively. The “Polydispersity (Mw/Mn)” value in series [2] (1 ppm ascorbic acid) was 1.22; in series [2] (10 ppm ascorbic acid) it was 1.25; in series [2] (50 ppm ascorbic acid) it was 1.19.

Take `Oc1ccc(O)cc1` [hydroquinone]: the “viscosity @300 rpm (shear rate 500 s-1) after 60 minutes” value in series [1] (75 ppm THPS with 25 ppm hydroquinone, initial viscosity 23.8 cP) is reported as 14.6 cP; in series [1] (75 ppm THPS with 50 ppm hydroquinone, initial viscosity 25.1 cP), 17.1 cP. Moreover, in series [1], the effect on depolymerization result was “the depolymerization is controlled or stopped”.

Consider “tetrakis(hydroxymethyl)phosphonium sulfate [THPS, reference compound]”, for which the “viscosity @300 rpm after 60 minutes” value in series [1] (50 ppm THPS, initial viscosity 23.8 cP) stood at 9.7 cP; in series [1] (75 ppm THPS, initial viscosity 23.8 cP), 7.3 cP; in series [1] (100 ppm THPS, initial viscosity 23.8 cP), 3.9 cP; in series [1] (125 ppm THPS, initial viscosity 23.8 cP), 2 cP. Also, the entries for the “effect on viscosity and molecular weight” value in series [1] (polyacrylamide or polyacrylamide-co-acrylic acid solutions mixed with THPS at 50-1000 ppm) and in series [3] were “reduction in viscosity along with a corresponding molecular weight reduction” and “reduction in viscosity of the application fluid along with a corresponding molecular weight reduction”, respectively. In series [2] (no inhibitor), the Mn is 652,000 g/mol. Further, the Mw in series [2] (no inhibitor) is 812,000 g/mol. The “Polydispersity (Mw/Mn)” value in series [2] (no inhibitor) amounted to 1.25. In addition, the “Mw of THPS/polymer solution without an inhibitor relative to Mw with an inhibitor” value in series [2] (after being left overnight) is listed as “approximately half”.
